Test results: ChEMBL document CHEMBL5352410, “Discovery of novel selenium-containing azole derivatives as antifungal agents by exploiting the hydrophobic cleft of CYP51” (Eur J Med Chem, 2022)
Values after ≈ are worked out from the molar mass of the structure shown.

What was measured:
Candida albicans [1] = assay: Fungicidal activity against Candida albicans; format: functional
Candida albicans [2] = assay: Fungicidal activity against FCZ-resistant Candida albicans 17#; format: functional
Candida albicans [3] = assay: Fungicidal activity against FCZ-resistant Candida albicans 632; format: functional
Candida albicans [4] = assay: Antibiofilm activity against Candida albicans SC5314 assessed as sessile minimum inhibitory concentration measured after 3 hrs by XTT assay; format: functional
Candida albicans [5] = assay: Antifungal activity against FCZ-resistant Candida albicans CaR by CLSI based broth microdilution method; format: functional
Candida albicans [6] = assay: Antibiofilm activity against Candida albicans SC5314 assessed as sessile minimum inhibitory concentration measured after 1.5 hrs by XTT assay; format: functional
Candida albicans [7] = assay: Fungicidal activity against Candida albicans sc5314; format: functional
Candida albicans [8] = assay: Antifungal activity against FCZ-resistant Candida albicans 904 by CLSI based broth microdilution method; format: functional
[9] = Metabolic stability in mouse liver microsome assessed as half life; format: ADME; details: liver microsomes
[10] = Cytotoxicity against human HL-60 cells by MTT assay; format: toxicity, cell-based
Candida albicans [11] = assay: Antibiofilm activity against Candida albicans SC5314 assessed as sessile minimum inhibitory concentration measured after 6 hrs by XTT assay; format: functional
Candida albicans [12] = assay: Fungicidal activity against FCZ-resistant Candida albicans 901; format: functional
Candida albicans [13] = assay: Antifungal activity against FCZ-resistant Candida albicans 901 by CLSI based broth microdilution method; format: functional
[14] = Cytotoxicity against human PC-3 cells by MTT assay; format: toxicity, cell-based
Candida albicans [15] = assay: Antibiofilm activity against Candida albicans CPCC400616 assessed as sessile minimum inhibitory concentration measured after 6 hrs by XTT assay; format: functional
Candida albicans [16] = assay: Antifungal activity against FCZ-resistant Candida albicans 17# by CLSI based broth microdilution method; format: functional
[17] = Metabolic stability in mouse liver microsome assessed as clearance; format: ADME; details: liver microsomes, read-out: CLH
Candida albicans [18] = assay: Antibiofilm activity against Candida albicans CPCC400616 assessed as sessile minimum inhibitory concentration measured after 1.5 hrs by XTT assay; format: functional
[19] = Cytotoxicity against human MDA-MB-231 cells by MTT assay; format: toxicity, cell-based
Candida albicans [20] = assay: Fungicidal activity against FCZ-resistant Candida albicans 904; format: functional
Candida albicans [21] = assay: Antibiofilm activity against Candida albicans CPCC400616 assessed as sessile minimum inhibitory concentration measured after 24 hrs by XTT assay; format: functional
Candida albicans [22] = assay: Antibiofilm activity against Candida albicans CPCC400616 assessed as sessile minimum inhibitory concentration measured after 3 hrs by XTT assay; format: functional
Candida albicans [23] = assay: Antifungal activity against FCZ-resistant Candida albicans 632 by CLSI based broth microdilution method; format: functional
Candida albicans [24] = assay: Antibiofilm activity against Candida albicans SC5314 assessed as sessile minimum inhibitory concentration measured after 24 hrs by XTT assay; format: functional
Candida albicans [25] = assay: Fungicidal activity against FCZ-resistant Candida albicans CaR; format: functional

Cc1ccc(C(Cn2ccnc2)[Se][Se]C(Cn2ccnc2)c2ccc(C)cc2)cc1 (stereo not drawn)
MFC (Candida albicans [1]): 64 µg/mL (≈ 121 µM)
MFC (Candida albicans [2]): > 64 µg/mL
MFC (Candida albicans [3]): 8 µg/mL (≈ 15.1 µM)
MIC50 (Candida albicans [4]): 2 µg/mL (≈ 3.78 µM)
MIC80 (Candida albicans [4]): 4 µg/mL (≈ 7.57 µM)
MIC (Candida albicans [5]): 2 µg/mL (≈ 3.78 µM)
MIC50 (Candida albicans [6]): 1 µg/mL (≈ 1.89 µM)
MIC80 (Candida albicans [6]): 4 µg/mL (≈ 7.57 µM)
MFC (Candida albicans [7]): 8 µg/mL (≈ 15.1 µM)
MIC (Candida albicans [8]): 4 µg/mL (≈ 7.57 µM)
half-life [9]: 21.2 min
IC50 [10]: 14.7 µM
MIC50 (Candida albicans [11]): 2 µg/mL (≈ 3.78 µM)
MIC80 (Candida albicans [11]): 8 µg/mL (≈ 15.1 µM)
MFC (Candida albicans [12]): 8 µg/mL (≈ 15.1 µM)
MIC (Candida albicans [13]): 4 µg/mL (≈ 7.57 µM)
IC50 [14]: 7.43 µM
MIC50 (Candida albicans [15]): 1 µg/mL (≈ 1.89 µM)
MIC80 (Candida albicans [15]): 32 µg/mL (≈ 60.6 µM)
MIC (Candida albicans [16]): 32 µg/mL (≈ 60.6 µM)
CLint scaled [17]: 68.9 mL/min/kg
MIC50 (Candida albicans [18]): 1 µg/mL (≈ 1.89 µM)
MIC80 (Candida albicans [18]): 8 µg/mL (≈ 15.1 µM)
IC50 [19]: 5.04 µM
MFC (Candida albicans [20]): 8 µg/mL (≈ 15.1 µM)
MIC50 (Candida albicans [21]): 4 µg/mL (≈ 7.57 µM)
MIC80 (Candida albicans [21]): 128 µg/mL (≈ 242 µM)
MIC50 (Candida albicans [22]): 2 µg/mL (≈ 3.78 µM)
MIC80 (Candida albicans [22]): 8 µg/mL (≈ 15.1 µM)
MIC (Candida albicans [23]): 4 µg/mL (≈ 7.57 µM)
MIC50 (Candida albicans [24]): 2 µg/mL (≈ 3.78 µM)
MIC80 (Candida albicans [24]): 4 µg/mL (≈ 7.57 µM)
MFC (Candida albicans [25]): > 64 µg/mL
